# Several values for one entry are separate records, joined by “and”; a condition that tells them apart may be missing. Identical values can stand only once.
# Legend:
# [1] = tested on: equine IL-31; test: Equine challenge study using the IL-31 itch model after IL-31 mimotope vaccines; format: in vivo, Horse; settings: for 1st Challenge Score (pruritus score) / 1st Challenge Average % Change in pruritus scores / Percent Change, 1st Challenge vs Historical Score / 2nd Challenge Average % Change in pruritus scores / Percent Change, 2nd Challenge vs Historical Score / 2nd Challenge Score (pruritus score): T03, T05, T06, T07: IM; for 1st Challenge Score (pruritus score): CRM197 conjugate 25 μg/dose, SP oil + CpG, IL-31 challenge Day 14 post-boost; for 1st Challenge Score (pruritus score) / Percent Change, 1st Challenge vs Historical Score / Percent Change, 2nd Challenge vs Historical Score / 2nd Challenge Score (pruritus score): individual horses; for 1st Challenge Average % Change in pruritus scores / Percent Change, 1st Challenge vs Historical Score: Day 14 post-boost; for 1st Challenge Average % Change in pruritus scores / 2nd Challenge Average % Change in pruritus scores: group mean; for 2nd Challenge Average % Change in pruritus scores / Percent Change, 2nd Challenge vs Historical Score: Day 105 post-boost; for 2nd Challenge Score (pruritus score): IL-31 challenge Day 105 post-boost
# From the text: Based on the high antibody titers elicited by horses vaccinated with CRM197 conjugated IL 31 mimotopes (FIG. 4), horses from the serology studies were utilized in a challenge study using the IL-31 itch model developed by the present inventors. Selected horses were vaccinated with an additional boost of the corresponding mimotope vaccines, after conclusion of the serology study, and were challenged with IL-31 at Day 14 after the final boost and at Day 105 after the final boost.
# Various candidate IL-31 mimotope constructs were evaluated, including ZTS-7240 (comprising SEQ ID NO:4) mimotope (constrained) corresponding to the 1505 region and ZTS-241 (comprising SEQ ID NO:6) mimotope (linear) corresponding to the A helix of the IL-31 homology model (FIG. 2). Study design is outlined in Table 6 below:
# There were no treatment groups T02 and T04 assigned in this study in order to continue to keep the group designations of respective horses from the first serology study. One horse each from treatment groups T02 and T04 from the first serology were used in treatment group T08 as negative controls (No booster dose given; challenged on Day 14 and Day 105 along with other treatment groups).
# [2] = tested on: IL-31 induced pruritus; test: Oclacitinib maleate in equine model of IL-31 induced pruritus; format: in vivo, Horse; design: key to Post Treatment Score (pruritus): cumulative count of yes responses (1 per behavior per 1-min interval); settings: for Post Treatment Score (pruritus) / % Change vs Historical Score: individual horses
# Procedure: Horses were administered either carrier only or oclacitinib maleate tablets at a determined number of hours prior to IL-31 challenge administration. […] Blood samples for pharmacokinetic analysis were collected at the time of IL-31 administration and immediately following the post-challenge observation period. Due to limited number of observation stalls, horses were challenged in batches. Batch 1 will include T01 (n=2)+T02 (n=5). Batch 2 will include T01 (n=2)+T03 (n=5). Batch 3 will include T01 (n=2)+T04 (n=5) (Table 9)
# Signs of pruritus in horses include: • Biting or scratching at self • Rubbing against objects • Feet stomping • Tail flicking • Head or body shaking • Rolling • Twitching of skin
# A “yes” response was indicated by marking a “1” in the space provided for the specific behavior during the one minute interval. The cumulative number of yes responses per behavior were added to determine a cumulative pruritus score for each horse.
# Chain of equine IL-31 (as listed by the source): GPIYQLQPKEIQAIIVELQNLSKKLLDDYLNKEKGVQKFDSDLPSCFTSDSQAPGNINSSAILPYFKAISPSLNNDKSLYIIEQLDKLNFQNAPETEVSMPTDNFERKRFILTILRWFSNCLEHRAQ
Substance,1st Challenge Score (pruritus score) [1],1st Challenge Average % Change in pruritus scores [1] [%],"Percent Change, 1st Challenge vs Historical Score [1]",2nd Challenge Average % Change in pruritus scores [1] [%],"Percent Change, 2nd Challenge vs Historical Score [1]",2nd Challenge Score (pruritus score) [1],"reduction in itch (relative to historic scores) ([1]; vaccinated horses, after 105 days of the final booster dose) [%]","Post Treatment Score (pruritus) ([2]; T02: 0.25 mg/kg oral, IL-31 0.25 mcg/kg challenge 1.5 hr after dosing)","% Change vs Historical Score ([2]; T02: 0.25 mg/kg oral, challenge 1.5 hr after dosing)","reduction in average pruritic score compared to the placebo group (T01) ([2]; T02: 0.25 mg/kg, challenged 1.5 hours after treatment) [%]","Post Treatment Score (pruritus) ([2]; T03: 0.25 mg/kg oral, IL-31 0.25 mcg/kg challenge 21.5 hr after dosing)","% Change vs Historical Score ([2]; T03: 0.25 mg/kg oral, challenge 21.5 hr after dosing)","reduction in average pruritic score compared to the placebo group (T01) ([2]; T03: 0.25 mg/kg, challenged 21.5 hours after treatment) [%]","Post Treatment Score (pruritus) ([2]; T04: 0.25 mg/kg oral, IL-31 0.25 mcg/kg challenge 4.5 hr after dosing)","% Change vs Historical Score ([2]; T04: 0.25 mg/kg oral, challenge 4.5 hr after dosing)","reduction in average pruritic score compared to the placebo group (T01) ([2]; T04: 0.25 mg/kg, challenged 4.5 hours after treatment) [%]"
"Ac-CGSGGPIYQLQPKEIQAIIVELQNLSKK-NH2 (not fully specified; printed as Ac-CGSGGPIYQLQPKEIQAIIVELQNLSKK-NH2; numbers in words are those of the source; also: CRM197 conjugate) [ZTS-7241, tested as CRM197 conjugate with SP oil + CpG]",12 and 5 and 38,−82.18,−86.44% and −94.87% and −65.23%,−68.70,−87.57% and −48.72% and −69.81%,11 and 50 and 33,68,,,,,,,,,
Oclacitinib maleate,,,,,,,,21 and 94 and 91 and 86 and 46,−68.89% and 6.21% and −5.70% and −9.47% and −31.85%,30,49 and 90 and 86 and 50 and 72,−3.92% and 65.14% and 17.81% and −29.08% and −5.88%,29,49 and 87 and 46 and 53 and 99,−55.05% and −22.32% and −54.23% and −45.92% and −6.16%,31
"Ac-CGSGKEKGVQKFDS-NH2 (not fully specified; printed as Ac-CGSGKEKGVQKFDS-NH2; numbers in words are those of the source; also: CRM197 conjugate) [ZTS-7242, tested as CRM197 conjugate with SP oil + CpG]",53 and 45 and 54,−20.58,−23.96% and −17.43% and −20.35%,46.28,22.94% and 69.62%,67 and 115,,,,,,,,,,
